The numbers were not newly measured in US20230355939A1, “DEVICES AND METHODS FOR CONTINUOUS EXTRUSION OF A DRUG INTO THE MOUTH” (SynAgile Corporation, priority 2020, published 2023), which cites them from elsewhere.

For series [1] the following is noted: for Approximate Pressure (vapor pressure): at 37° C.

For `CCOCC` [diethyl ether], the “Approximate Pressure (vapor pressure)” value in series [1] is given as roughly 1.1 bars.

`CCOC` [methyl ethyl ether]: the “Approximate Pressure (vapor pressure)” value in series [1] is roughly 3 bars.

Regarding `FC(C(F)(F)F)C(F)(F)F` [1,1,1,2,3,3,3-hepta-fluoropropane], the “Approximate Pressure (vapor pressure)” value in series [1] is given as roughly 6.4 bars.

As to `FC1(F)C(F)(F)C(F)(F)C1(F)F` [octafluorocyclobutane], the “Approximate Pressure (vapor pressure)” value in series [1] was roughly 4.3 bars.

As for `CCCF` [1-fluoropropane], the “Approximate Pressure (vapor pressure)” value in series [1] is recorded as roughly 4.1 bars.

Consider `CCC(C)C` [isopentane], for which the “Approximate Pressure (vapor pressure)” value in series [1] is reported as roughly 1.4 bars.

`N[C@@H](Cc1ccc(O)c(O)c1)C(=O)O` [LD, levodopa]: the solubility result is given as “about 50 mg/mL”.

As for `FCCF` [1,2-difluoroethane], the “Approximate Pressure (vapor pressure)” value in series [1] is recorded as roughly 1.9 bars.

For `CCCC` [butane], the “Approximate Pressure (vapor pressure)” value in series [1] is reported as roughly 3.5 bars.

On to `FC(F)(F)CC(F)(F)F` [1,1,1,3,3,3 hexafluoropropane], for which, in series [1], the “Approximate Pressure (vapor pressure)” value is roughly 4.0 bars.

With `CC(C)(C)C` [neopentane], in series [1], the “Approximate Pressure (vapor pressure)” value is reported as roughly 2.4 bars.

For the compound `FCC(F)(F)F` [1,1,1,2-tetrafluoroethane], in series [1], the “Approximate Pressure (vapor pressure)” value is reported as roughly 9.3 bars. For the same compound, the vapor pressure result in series [1] (at about 23 ± 3° C.) was “about 5 bars”.

Regarding `C=CC` [propene], the “Approximate Pressure (vapor pressure)” value in series [1] is given as roughly 15.5 bars.

With `CCC` [propane], the “Approximate Pressure (vapor pressure)” value in series [1] is given as roughly 12.8 bars.

Regarding `CCCCF` [1-fluorobutane], the “Approximate Pressure (vapor pressure)” value in series [1] is roughly 1.3 bars.

`CC(C)F` [2-fluoropropane]: the “Approximate Pressure (vapor pressure)” value in series [1] is listed as roughly 5 bars.

`CC=CC` [2-butene]: the “Approximate Pressure (vapor pressure)” value in series [1] is recorded as roughly 3.2 bars.
